From publication PMC12116762, “Topobexin targets the Topoisomerase II ATPase domain for beta isoform-selective inhibition and anthracycline cardioprotection” (Nature Communications, 2025)

Key:
[1] = target: T1, YFP-TOP2A (Homo sapiens, UniProt P11388); experiment: FRAP analysis, YFP-TOP2A in HEK293F cells; assay type: cell-based; conditions: 0.25 and 1 μM
T1 construct: Using recombinant full-length human TOP2A and TOP2B enzymes; expressed in transfected cells; host or cells: HEK293F
Description: (§1) HEK293F cells were transfected with DNA plasmids encoding yellow-fluorescent protein (YFP)-TOP2A or YFP-TOP2B (the same DNA constructs for mammalian protein expression and purification) using Lipofectamine 2000 (Thermo Fisher Scientific). Cells were cultured for 24 h post transfection and YFP signals were confirmed prior to FRAP experiments. Transfected cells were plated on glass-bottomed culture dishes (Matsunami) and rested overnight. The next day, each dish was pre-incubated with the indicated inhibitor treatment or DMSO control for 15 min prior to FRAP experiment. Each set of experiments was repeated on at least two different days using newly transfected cells each time. Live-cell imaging was done using a LSM 980 microscope (Carl Zeiss Microscopy, LLC). YFP signal was excited at 508 nm at 2% laser power and detected through a 516–604 nm range. A small area within the nucleus (purple box) is manually selected for fluorescence bleaching at 100% laser power for 50 iterations. Inhibition of TOP2 by obex inhibitors was detected by impairment in fluorescence recovery at 15 s post bleaching, as a lack of inhibition allows for TOP2 diffusion throughout the nucleus.

[2] = target: T2, YFP-TOP2B (Homo sapiens, UniProt Q02880); experiment: FRAP analysis, YFP-TOP2B in HEK293F cells; assay type: cell-based; conditions: 0.25 and 1 μM
T2 construct: Using recombinant full-length human TOP2A and TOP2B enzymes; expressed in transfected cells; host or cells: HEK293F
Description: as §1

[3] = tested on: NVCM; experiment: Live-cell microscopy and mitochondrial membrane staining of NVCM; assay type: cell-based, rat; conditions: 10 µM + DAU 1.2 µM
Description: Micrographs were obtained using an Eclipse TS100 inverted epifluorescence microscope (Nikon Corporation, Tokyo, Japan) and NIS-Elements AR 2.20 software (Laboratory Imaging s.r.o., Prague, Czech Republic). After treatment and incubation time corresponding to cytotoxicity/protection experiments (3 h preincubation with topobexin (9) [10 µM], 3 h co-incubation with topobexin (9) [10 µM] + DAU [1.2 µM], 45 h drug-free medium) NVCM were stained with 0.5 μM JC-1 probe (Molecular Probes/Thermo Fisher Scientific, USA) for 30 min at 37 °C or combination of 0.2 μM MitoTracker Red CMXRos (Molecular Probes/Thermo Fisher Scientific, USA) for 30 min and Hoechst 33342 for 10 min at 37 °C and then washed with a buffer (1.2 mM MgSO4 · 7H2O, 116 mM NaCl, 5.3 mM KCl, 1.13 mM NaH2PO4 · H2O, 20 mM HEPES).

T1 sequence (P11388 whole entry): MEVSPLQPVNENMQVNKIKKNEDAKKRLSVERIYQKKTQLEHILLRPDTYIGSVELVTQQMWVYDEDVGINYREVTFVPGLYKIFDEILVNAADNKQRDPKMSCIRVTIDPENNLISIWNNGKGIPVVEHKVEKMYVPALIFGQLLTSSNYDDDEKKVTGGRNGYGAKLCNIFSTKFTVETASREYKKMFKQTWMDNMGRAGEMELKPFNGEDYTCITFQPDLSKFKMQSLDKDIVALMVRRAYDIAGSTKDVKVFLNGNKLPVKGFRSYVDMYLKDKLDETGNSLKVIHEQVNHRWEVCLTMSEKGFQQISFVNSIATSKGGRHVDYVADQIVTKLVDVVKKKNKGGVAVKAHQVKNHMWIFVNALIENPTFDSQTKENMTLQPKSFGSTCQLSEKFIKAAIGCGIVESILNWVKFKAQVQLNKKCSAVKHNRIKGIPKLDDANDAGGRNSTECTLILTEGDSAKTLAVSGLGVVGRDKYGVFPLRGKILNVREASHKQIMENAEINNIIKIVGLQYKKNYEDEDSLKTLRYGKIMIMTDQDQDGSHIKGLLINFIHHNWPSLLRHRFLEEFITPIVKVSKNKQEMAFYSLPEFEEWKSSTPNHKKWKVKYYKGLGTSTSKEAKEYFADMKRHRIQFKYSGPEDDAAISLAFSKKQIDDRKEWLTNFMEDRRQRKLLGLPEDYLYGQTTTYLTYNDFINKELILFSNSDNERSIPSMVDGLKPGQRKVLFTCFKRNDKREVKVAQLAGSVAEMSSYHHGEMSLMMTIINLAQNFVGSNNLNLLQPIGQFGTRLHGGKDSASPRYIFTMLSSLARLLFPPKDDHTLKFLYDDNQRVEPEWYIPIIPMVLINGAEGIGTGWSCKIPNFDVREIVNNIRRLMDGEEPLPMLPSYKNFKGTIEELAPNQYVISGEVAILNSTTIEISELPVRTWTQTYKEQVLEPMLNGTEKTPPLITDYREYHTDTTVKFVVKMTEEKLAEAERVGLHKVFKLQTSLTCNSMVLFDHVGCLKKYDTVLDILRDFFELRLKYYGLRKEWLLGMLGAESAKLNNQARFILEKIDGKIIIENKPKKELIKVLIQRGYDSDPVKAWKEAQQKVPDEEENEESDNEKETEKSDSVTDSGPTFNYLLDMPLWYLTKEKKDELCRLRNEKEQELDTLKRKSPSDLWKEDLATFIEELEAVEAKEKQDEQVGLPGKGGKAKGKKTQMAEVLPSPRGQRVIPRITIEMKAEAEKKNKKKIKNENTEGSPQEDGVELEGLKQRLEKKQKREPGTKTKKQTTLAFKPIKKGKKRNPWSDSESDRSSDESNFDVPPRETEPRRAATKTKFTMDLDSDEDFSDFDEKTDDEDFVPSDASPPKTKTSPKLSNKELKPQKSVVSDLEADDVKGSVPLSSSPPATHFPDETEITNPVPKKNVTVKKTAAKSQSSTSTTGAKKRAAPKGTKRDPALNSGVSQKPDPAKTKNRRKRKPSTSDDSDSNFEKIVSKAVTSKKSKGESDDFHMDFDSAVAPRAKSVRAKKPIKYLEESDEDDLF
T2 sequence (Q02880 1-1621 isoform Q02880-2): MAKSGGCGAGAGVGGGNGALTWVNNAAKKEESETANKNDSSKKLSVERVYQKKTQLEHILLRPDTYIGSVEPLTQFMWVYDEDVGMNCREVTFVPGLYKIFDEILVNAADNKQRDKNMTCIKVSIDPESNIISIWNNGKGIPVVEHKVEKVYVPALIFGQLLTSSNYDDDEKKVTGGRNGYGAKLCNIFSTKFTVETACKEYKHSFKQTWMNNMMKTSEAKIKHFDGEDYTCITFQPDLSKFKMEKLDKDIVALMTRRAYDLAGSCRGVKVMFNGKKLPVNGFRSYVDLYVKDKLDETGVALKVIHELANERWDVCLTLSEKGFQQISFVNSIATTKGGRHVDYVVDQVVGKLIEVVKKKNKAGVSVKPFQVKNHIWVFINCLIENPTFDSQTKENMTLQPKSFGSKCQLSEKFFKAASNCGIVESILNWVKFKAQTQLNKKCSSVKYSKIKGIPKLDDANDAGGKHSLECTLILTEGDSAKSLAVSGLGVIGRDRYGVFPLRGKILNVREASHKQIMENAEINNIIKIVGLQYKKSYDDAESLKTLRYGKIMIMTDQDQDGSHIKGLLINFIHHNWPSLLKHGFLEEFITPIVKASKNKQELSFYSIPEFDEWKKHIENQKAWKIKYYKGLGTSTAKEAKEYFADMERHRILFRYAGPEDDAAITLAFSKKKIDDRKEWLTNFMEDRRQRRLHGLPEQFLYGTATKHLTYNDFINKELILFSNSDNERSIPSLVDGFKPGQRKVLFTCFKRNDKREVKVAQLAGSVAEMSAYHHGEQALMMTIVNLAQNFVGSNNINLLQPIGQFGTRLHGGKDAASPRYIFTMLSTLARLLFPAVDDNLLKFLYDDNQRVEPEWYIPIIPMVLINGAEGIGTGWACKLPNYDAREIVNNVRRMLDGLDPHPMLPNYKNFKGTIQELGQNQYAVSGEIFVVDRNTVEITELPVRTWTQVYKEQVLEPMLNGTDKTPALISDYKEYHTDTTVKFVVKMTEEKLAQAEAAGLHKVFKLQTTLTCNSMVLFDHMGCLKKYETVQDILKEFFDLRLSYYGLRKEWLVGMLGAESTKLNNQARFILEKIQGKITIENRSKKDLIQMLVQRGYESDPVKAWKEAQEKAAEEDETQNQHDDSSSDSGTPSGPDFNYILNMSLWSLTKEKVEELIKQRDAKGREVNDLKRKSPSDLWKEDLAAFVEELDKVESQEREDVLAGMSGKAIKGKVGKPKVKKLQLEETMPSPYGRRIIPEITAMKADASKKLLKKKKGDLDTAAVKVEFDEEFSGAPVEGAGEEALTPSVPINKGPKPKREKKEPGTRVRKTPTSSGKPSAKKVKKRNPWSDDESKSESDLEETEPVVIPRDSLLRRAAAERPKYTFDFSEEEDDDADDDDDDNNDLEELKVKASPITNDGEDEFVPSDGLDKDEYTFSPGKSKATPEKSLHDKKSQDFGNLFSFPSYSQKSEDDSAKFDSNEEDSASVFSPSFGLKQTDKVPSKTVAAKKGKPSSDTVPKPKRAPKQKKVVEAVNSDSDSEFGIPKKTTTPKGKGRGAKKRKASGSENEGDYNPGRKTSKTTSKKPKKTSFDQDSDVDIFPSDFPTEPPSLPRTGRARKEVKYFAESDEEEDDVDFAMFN

## CCCc1cc(=O)oc2c(C(=O)N3CCCc4ccccc43)c(OCCN3CCN(C)CC3)ccc12 [topobexin (9)]
[1]
  mobility of TOP2A (FRAP): not affected
[2]
  recovery of fluorescence for TOP2B in photobleached area: impaired
[3]
  DAU-induced changes in cardiomyocyte morphology and mitochondria: reduced the distinct changes in cardiomyocyte morphology induced by DAU
